Laboratory results as given in patent US8809057B2, “Methods of evaluating gene expression levels” (Raytheon BBN Technologies Corp., priority 2012, dated 2014).

Tests used:
Assay type in all cases: cell-based
[1] = tested on: Tre genetic element (rtTA); experiment: Example 2 multiplex circuit: small molecule effector (dox) transfer curve, input reporter EYFP; conditions: Example 2, FIG. 10, normalized input reporter EYFP
Excerpt: The multiplex circuit to be characterized is shown in FIG. 9. he regulatory protein transcription unit and the input reporter protein transcription unit, which are co-expressed in this example, are under the control of the small molecule effector doxycycline (dox), which binds to the constitutively expressed protein rtTA to regulate transcription from the Tre genetic element. In this example, the effector transcription unit comprises a constitutive effector genetic element (CAG) and a coding sequence for an effector-regulated protein (rtTA), wherein the constitutive effector genetic element (CAG) controls expression of the effector-controlled protein (rtTA). In this example, the effector transcription unit further comprises coding sequence for the VP16-GAL4 activator which binds UAS-T1 in the output transcription unit. In the absence of dox, Tal1 is not expressed and the constitutively expressed VP16-GAL4 activator binds to UAS-T1, leading to expression of the mKate output reporter. The effector transcription unit contains a coding sequence for a 2A self-cleaving peptide allowing for expression of rtTA and VP16-GAL4 from the same construct. The test regulatory protein transcription unit and the input transcription unit are co-expressed from a genetic element responsive to a small molecule effector (Tre). […] The input reporter protein EYFP has a yellow fluorescence emission. […]

[2] = tested on: Tre genetic element (rtTA); experiment: Example 1 multiplex circuit: small molecule effector (dox) transfer curve, input reporter EBFP2 by FACS; conditions: Example 1, FIG. 7, normalized input reporter EBFP2, HEK 293 FT
Excerpt: Both the regulatory protein transcription unit and the input reporter protein transcription unit are under the control of the small molecule effector doxycycline (dox). In this example, the activity of the small molecule effector (dox) is mediated through an effector transcription unit. The effector transcription unit comprises a constitutive effector genetic element (pHef1a) and a coding sequence for an effector-regulated protein (rtTA), wherein the constitutive effector genetic element (pHef1a) controls expression of the effector-controlled protein (rtTA). […]
The input transcription unit comprises a genetic element responsive to a small molecule effector (Tre) and a coding sequence for the input reporter protein (EBFP2), wherein the genetic element responsive to the effector-regulated protein (Tre) controls expression of the input reporter protein (EBPF2). […] The input reporter protein EBFP2 has a blue fluorescence emission. […]
(§1) The cells are then subjected to FACS analysis and the amounts of input, output and constitutive protein fluorescence is measured for each cell. […]
(§2) While the colors for the input, output and constitutive protein fluorescence are selected to have as little overlap as possible, there is some inherent overlap between the different colors. […]

Hef1a-LacO1Oid = experiment: Example 1 multiplex circuit: regulatory protein (LacI) transfer curve, output reporter EYFP by FACS; conditions: Example 1, FIG. 8, normalized output reporter EYFP
Excerpt: The regulatory protein transcription unit comprises a genetic element responsive to a small molecule effector (Tre) and a coding sequence for the regulatory protein (LacI), wherein the genetic element responsive to the genetic element responsive to the effector-regulated protein (Tre) controls expression of the regulatory protein (LacI). In the present case, the genetic element responsive to the effector-regulated protein (Tre) is responsive to the effector-controlled protein (rtTA).
The output transcription unit comprising a genetic element responsive to the regulatory protein (Hef1a-LacO1Oid) and a coding sequence for the output reporter protein (EYFP), wherein the genetic element responsive to the regulatory protein (Hef1a-LacO1Oid) controls expression of the output reporter protein (EYFP). The output reporter protein EYFP has a yellow fluorescence emission. […]
as §1, §2

## C[C@H]1c2cccc(O)c2C(=O)C2=C(O)[C@]3(O)C(=O)C(C(N)=O)=C(O)[C@@H](N(C)C)[C@@H]3[C@@H](O)[C@@H]21 [dox, doxycycline]
[1]
  dox level at which the level of IFP saturates at a high value: more than 200 nM
  dox level at which the level of IFP stays low regardless of the plasmid count: less than or equal to 3 nM
[2]
  dox level at which the level of IFP saturates at a high value: more than 200 nM
  dox level at which the level of IFP stays low regardless of the plasmid count: less than or equal to 3 nM

B1: LacI: test regulatory protein (Lac repressor) binding Hef1a-LacO1Oid (protein, UniProt P03023 1-360, looked up)
Lactose operon repressor: MKPVTLYDVAEYAGVSYQTVSRVVNQASHVSAKTREKVEAAMAELNYIPNRVAQQLAGKQSLLIGVATSSLALHAPSQIVAAIKSRADQLGASVVVSMVERSGVEACKAAVHNLLAQRVSGLIINYPLDDQDAIAVEAACTNVPALFLDVSDQTPINSIIFSHEDGTRLGVEHLVALGHQQIALLAGPLSSVSARLRLAGWHKYLTRNQIQPIAEREGDWSAMSGFQQTMQMLNEGIVPTAMLVANDQMALGAMRAITESGLRVGADISVVGYDDTEDSSCYIPPLTTIKQDFRLLGQTSVDRLLQLSQGQAVKGNQLLPVSLVKRKTTLAPNTQTASPRALADSLMQLARQVSRLESGQ
Hef1a-LacO1Oid
  repression of the output of Hef1a-LacO1Oid: 100 fold
